Experimental data reported in US5981592A, “Method and composition for treating cystic fibrosis” (priority 1998, dated 1999).

Key:
[1] = test system: epithelial cells of the distal colon (crypts); assay: Labelling Index (LI) of proliferating crypt cells in distal colon, BrD-U staining; assay type: in vivo, Female Sprague-Dewley rats; settings: rats, 30 days; for LI (Labelling Index): 6.3 mg/Kg/day, distal colon, control 12.62, P<0.05
Text: The term "effective to elicit a chemoprotective effect" was used herein means that abnormal cell proliferation is reduced. A method of measuring cell proliferation in animals is the Labelling Index (LI). Epithelial cells of the distal colon are stained using a histologic biomarker of proliferating cells. Microscopic examination allows for quantification of the proportion of proliferating cells in the crypts. A high proportion of proliferating cells or LI, particularly in the upper portion of the crypts, is an indicator of abnormal cell proliferation. A reduction in the LI of at least 10 to 50%, preferably at least 30% is associated with the reduction of abnormal cell proliferation. Of course, the particular R-NSAID used must be enantiomerically stable in the animal species being tested.
(§1) A study was performed to compare the R- and S-isomers of flurbiprofen with regard to their effect on the Labelling Index (LI) and duodenal ulceration in contrast to the S-isomer.
(§2) Female Sprague-Dewley rats were randomized to 4 groups (N=10) receiving 6.3 mg/Kg/day R-flurbiprofen; 6.3 mg/Kg/day S-flurbiprofen; 12.5 mg/Kg/day racemic flurbiprofen; or vehicle control. Fasted rats were sacrificed after 30 days. Small bowel ulcer score was recorded in each group.
The LI is calculated using a histologic biomarker of proliferating cells, a monoclonal antibody to Bromo-deoxyuridine (BrD-U). Intestinal crypts are examined microscopically in longitudinal sections such that proliferating cells are identified and quantified as a proportion of total crypt cells. An LI was determined for each rat using BrD-U staining to identify the proportion of mitotic cells in the crypt of Leiberkuhn. Twelve well-oriented crypts (distal colon) were examined in each rat.

neutrophil traffic = assay: effect on neutrophil traffic in the normal rat; assay type: in vivo; settings: for neutrophil adhesiveness and extravasation: post-capillary venules and surrounding tissue
[2] = test system: cystic fibrosis lung disease; settings: cited from earlier work
[3] = test system: white cell count in the blood; settings: in vivo; cited from earlier work
colon cancer [4] = settings: cited from earlier work; for prevention of cancer of the large bowel and rectum: causal relationship with use identified by the reference
gastric mucosa = settings: in vivo; cited from earlier work
colon cancer [5] = settings: cited from earlier work; for survival among colon cancer patients: 5-fluorouracil alone or with levamisole
neutrophils = settings: high doses; stated as believed; cited from earlier work
small bowel = test system: small bowel; parameters: species or system Female Sprague-Dewley rats; settings: rat, in vivo
Procedure: The term "with reduced gastrointestinal toxicity" as used herein means that the administration of the particular R-NSAID is less ulcerogenic to the gastrointestinal tract of the human or other mammal than the corresponding racemate or S-NSAID. One measure of ulcerogenic activity is the small bowel ulcer score. A rat is treated daily through oral administration of the R-NSAID for 30 days. At the end of the 30 days, the rat is sacrificed and the intestines removed. Lesions of appreciable size in the mucosa are measured. A cumulative score equaling the sum of the diameters of the ulcers measured are reported as the ulcer score. An ulcer score essentially equal to that of a control rat, or a reduction of the ulcer score of at least 50 to 90%, preferably at least 80%, as compared to the corresponding S-NSAID or racemate, is considered a reduction in gastrointestinal toxicity.
as §1, §2

For `C[C@H](C(=O)O)c1ccc(-c2ccccc2)c(F)c1` [S-flurbiprofen], the “LI (Labelling Index)” value [1] was 9.09 and the “neutrophil adhesiveness and extravasation” value (neutrophil traffic) was “produce neutrophil adhesiveness in the post-capillary venules and extravasation of neutrophils into the surrounding tissue”.

In the case of `CC(C)Cc1ccc([C@H](C)C(=O)O)cc1` [S(+) ibuprofen], the gastrointestinal side effects ([2]; human, in vivo) is listed as “severely limit the chronic use of this therapy”.

For `COc1ccc2c(c1)c(CC(=O)O)c(C)n2C(=O)c1ccc(Cl)cc1` [indomethacin], the leukopenia/agranulocytosis syndrome [3] is given as “leukopenia/agranulocytosis syndrome has been described”, the “prevention of cancer of the large bowel and rectum” value (shortened to “prevention”) (colon cancer [4]) is given as “prevention of cancer of the large bowel and rectum” and the “damage and irritation of the gastric mucosa” value (gastric mucosa) is given as “cause damage and irritation of the gastric mucosa”.

In the case of `c1ccc([C@H]2CN3CCSC3=N2)cc1` [levamisole], the “survival among colon cancer patients” value (colon cancer [5]) is given as “improved survival rate” and the “T-cell count / immune system” value (colon cancer [5]; human, in vivo) is given as “stimulate the immune system and increase T-cell count”.

For `CC(C)Cc1ccc(C(C)C(=O)O)cc1` (racemic) [racemic ibuprofen], the leukopenia/agranulocytosis syndrome [3] is listed as “leukopenia/agranulocytosis syndrome has been described”, the “influx of neutrophils to the alveolar crevices” value (neutrophils) is listed as “inhibits the influx of neutrophils to the alveolar crevices” and the “progression of the lung disease” value ([2]; high doses, four-year period, cystic fibrosis patients) is listed as “slows progression of the lung disease”. The “side effects at high doses” value ([2]; human, in vivo) was “conjunctivitis and epistaxis”.

In the case of `CC(C(=O)O)c1cccc(C(=O)c2ccccc2)c1` (stereo not drawn) [ketoprofen], the leukopenia/agranulocytosis syndrome [3] is listed as “leukopenia/agranulocytosis syndrome has been described”.

In the case of `CC(=O)Oc1ccccc1C(=O)O` [aspirin], the “protection against colon cancer” value (colon cancer [4]; epidemiologic survey) is given as “confer protection against colon cancer” and the “damage and irritation of the gastric mucosa” value (gastric mucosa) is given as “cause damage and irritation of the gastric mucosa”.

For `CC1=C(CC(=O)O)c2cc(F)ccc2/C1=C\c1ccc([S+](C)[O-])cc1` (stereo not drawn) [sulindac], the “prevention” value (colon cancer [4]) is listed as “prevention of cancer of the large bowel and rectum”.

In the case of `CN1C(C(=O)Nc2ccccn2)=C(O)c2ccccc2S1(=O)=O` [peroxicam], the “prevention” value (colon cancer [4]) is listed as “prevention of cancer of the large bowel and rectum”.

In the case of `C[C@@H](C(=O)O)c1ccc(-c2ccccc2)c(F)c1` [R-flurbiprofen], the “ulcerogenicity, in words” value (small bowel) is reported as “much less ulcerogenic than its S-enantiomer”, the “cell proliferation in the distal colon, in words” value [1] is reported as “suppresses cell proliferation in the distal colon” and the “LI (Labelling Index)” value [1] is reported as 8.71. For the same molecule, the “effect on neutrophil traffic relative to the S-enantiomer” value (neutrophil traffic) was “as effective as the S-enantiomer” and the “neutrophil adhesiveness and extravasation” value (neutrophil traffic) was “produce neutrophil adhesiveness in the post-capillary venules and extravasation of neutrophils into the surrounding tissue”.

In the case of `O=c1[nH]cc(F)c(=O)[nH]1` [5-fluorouracil], the “survival among colon cancer patients” value (colon cancer [5]) is listed as “No improvement in survival”.

In the case of `CC(C(=O)O)c1ccc(-c2ccccc2)c(F)c1` (racemic) [racemic flurbiprofen], the “LI, result in words” value ([1]; equal-molar doses of both enantiomers (racemic 12.5 mg/Kg/day), relative to R- and S-flurbiprofen groups) is reported as “further reduced”.
